In US20240353338A1 (priority 2023, published 2024):

Experiments:
transthyretin (TTR) = target: T1, transthyretin (TTR) (Homo sapiens, UniProt P02766); assay type: binding
T1 construct: purchased Sigma Aldrich P1742

SARS-CoV-2 M^pro = SARS-CoV-2 M^pro (Severe acute respiratory syndrome coronavirus 2, UniProt P0DTD1); assay: TRIP screening of M^pro inhibitor binding and binding strength/affinity; settings: 1 μM vs 5 μM M^pro mixes
streptavidin = streptavidin (Streptomyces avidinii, UniProt P22629); assay type: binding
Chain of streptavidin (P22629 37-163): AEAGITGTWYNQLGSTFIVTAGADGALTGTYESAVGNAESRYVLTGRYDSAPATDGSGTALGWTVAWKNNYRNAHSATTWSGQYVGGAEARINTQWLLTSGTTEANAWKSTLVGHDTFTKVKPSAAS

With `O=[N+]([O-])c1ccc(O)c([N+](=O)[O-])c1` [DNP, 2,4 dinitrophenol] the “binding between DNP and TTR over time (PC2 of 1230-1350 cm^-1 region)” value (transthyretin (TTR)) was “enhanced over time”.

`Nc1nnc(Sc2ncc([N+](=O)[O-])s2)s1` [Halicin] was tested, and the “affinity for monomer M^pro versus dimer / dimer-monomer M^pro mix” value (SARS-CoV-2 M^pro) was “higher affinity for binding monomeric M^pro”.

In the case of `O=C(O)CCCC[C@@H]1SC[C@@H]2NC(=O)N[C@@H]21` [biotin], the “binding of biotin to streptavidin (Trp N-H band shift 877 to 870 cm^-1)” value (streptavidin) is reported as “strong hydrogen bonding occurred”.
